Our source for the Activity, Km and Vmax values is ChEMBL document CHEMBL3272206, “Importance of the aromatic ring in adrenergic amines. 2. Synthesis and adrenergic activity of some nonaromatic six- and eight-membered ring analogs of beta-phenylethanolamine” (J Med Chem, 1976).

Activity calls are given as the source filed them. The calls are words filed in the database; no cut-off is given here.

Data set [1] is filed under the species Rattus norvegicus. In words: Adrenergic activity in albino Sprague-Dawley rat vas deferens assessed as contractile response at 0.3 mM measured after 1 to 5 mins. The data set is classed as functional, tissue-based.
In a further data set the test system is Vas deferens. Description: Adrenergic activity in reserpine-pretreated albino Sprague-Dawley rat vas deferens assessed as potentiation of norepinephrine-induced contractile response at 30 uM. The data set is classed as functional, tissue-based.
Data set [2] is filed under the species Rattus norvegicus. Description: Adrenergic activity in reserpine-pretreated albino Sprague-Dawley rat vas deferens assessed as contractile response. The data set is classed as functional, tissue-based.
Substrate in data set [3]: NCC(O)C1=C/CCCC/C=C\1
In words: (§1) Activity at PNMT in bovine adrenal medulla using DL-beta-phenylethanolamine and SAM-14CH3 as substrate by Michaelis-Menten analysis. The settings on record: Bos taurus.

Substrate in data set [4]: NCC(O)C1CC=CCC1
The description is as §1. The settings on record: Bos taurus.

Substrate in data set [5]: NCC(O)C1CCCCCCC1
The data set is described as §1. The settings on record: Bos taurus.

Substrate in data set [6]: NCC(O)c1ccccc1
The description is as §1. The settings on record: Bos taurus.

Substrate in data set [7]: NCC(O)/C1=C/CC/C=C\CC1
The description is as §1. The settings on record: Bos taurus.

Substrate in data set [8]: NCC(O)C1CCCCC1
The data set is described as §1. The settings on record: Bos taurus.

Substrate in data set [9]: NCC(O)C1=C/C=C\C=C/C=C\1
Described as §1. The settings on record: Bos taurus.

Substrate in data set [10]: NCC(O)C1=C/CCCC/C=C\1
Description: (§2) Activity at PNMT in bovine adrenal medulla using DL-beta-phenylethanolamine and SAM-14CH3 as substrate measured per mg of protein by Michaelis-Menten analysis. The settings on record: Bos taurus.

Substrate in data set [11]: NCC(O)C1CC=CCC1
The description is as §2. The settings on record: Bos taurus.

Substrate in data set [12]: NCC(O)C1CCCCCCC1
The data set is described as §2. The settings on record: Bos taurus.

Substrate in data set [13]: NCC(O)c1ccccc1
Described as §2. The settings on record: Bos taurus.

Substrate in data set [14]: NCC(O)/C1=C/CC/C=C\CC1
Described as §2. The settings on record: Bos taurus.

Substrate in data set [15]: NCC(O)C1CCCCC1
The description is as §2. The settings on record: Bos taurus.

Substrate in data set [16]: NCC(O)C1=C/C=C\C=C/C=C\1
Described as §2. The settings on record: Bos taurus.

For the molecule `NCC(O)C1/C=C\CCCCC1` (stereo not given), the result in the data set listed under Rattus norvegicus [1] and with Vas deferens was Active. Moreover, the result in the data set filed under Rattus norvegicus [2] was inactive.

As to `NCC(O)C1CCCCCCC1` (stereo not given), the result in the data set filed under Rattus norvegicus [1] and in the data set with Vas deferens was Active. The result in the data set filed under Rattus norvegicus [2] was inactive.

As for `NCC(O)c1ccccc1` (stereo not given), the outcome in the data set listed under Rattus norvegicus [1] and in the data set with Vas deferens was Active. For the same molecule, the result in the data set filed under Rattus norvegicus [2] was inactive.

Take `C[C@@H](N)[C@@H](O)c1ccccc1`: the result in the data set filed under Rattus norvegicus [1] and in the data set on Vas deferens was Active. Also, the outcome in the data set listed under Rattus norvegicus [2] was inactive.

With `NCC(O)C1=C/CCCC/C=C\1` (stereo not given), the outcome in the data set filed under Rattus norvegicus [1] and in the data set on Vas deferens was Active. The outcome in the data set listed under Rattus norvegicus [2] was inactive.

`NCC(O)C1CCCCC1` (stereo not given): the outcome in the data set listed under Rattus norvegicus [1] and with Vas deferens was Active. Moreover, the outcome in the data set filed under Rattus norvegicus [2] was inactive.

`NCC(O)C1=C/C=C\C=C/C=C\1` (stereo not given): the result in the data set listed under Rattus norvegicus [1] and in the data set on Vas deferens was Active. In the data set filed under Rattus norvegicus [2], the result was inactive.

Take `NCC(O)/C1=C/CC/C=C\CC1` (stereo not given): the outcome in the data set listed under Rattus norvegicus [1] was Active. Further, in the data set filed under Rattus norvegicus [2], the result was inactive.

Regarding `NCC(O)C1CC=CCC1` (stereo not given), the outcome in the data set filed under Rattus norvegicus [1] and in the data set on Vas deferens was Active. Further, the outcome in the data set listed under Rattus norvegicus [2] was inactive.

B1: Phenylethanolamine N-methyltransferase (Bos taurus), P10938 (protein)
chain: MSGTDRSQAAGAVPDSDPGLAAVSSAYQRFEPRAYLRNNYAPPRGDLSCPDGVGPWKLRCLAQTFATGEVSGRTLIDIGSGPTIYQLLSACAHFEDITMTDFLEVNRQELRLWLREEPGAFDWSVYSQHVCLIEGKGESWQEKECQLRARVKRILPIDVHRPQPLGAGGLAPLPADALVSAFCLEAVSPDLASFQRALDHITTLLRPGGHLLLIGALEESWYLAGEARLAVVPVREEEVREALVRTATRCGICARTPMPAHLQTGVDDVKGIFFTRAQKKVGV
For B1, the Km in data set [3] turned out to be 128 µM; in data set [4] it was 57 µM; in [5] it was 26 µM; in [6] it was 136 µM; in data set [7], 155 µM; in data set [8], 40 µM. Moreover, the Km in data set [9] was determined as 430 µM. Also, the Vmax in [10] is 2.61 nmol/min; in [11] it was 1.37 nmol/min; in [12] it was 0.96 nmol/min; in data set [13] it was 2.1 nmol/min; in [14], 2.75 nmol/min; in [15], 0.99 nmol/min. Moreover, the Vmax in data set [16] is 1.73 nmol/min.

One may read the Km as the concentration of substrate that gives half-maximal velocity. By Vmax is commonly meant the rate approached at saturating substrate.
